Source: the Deep4Chem optical property database
Blank lines part the entries; values can stand above or below the compound they belong to.

Assay: solvent given as SMILES

Structure (SMILES): C=CCOc1nnc(OCCC(F)(F)C(F)(F)C(F)(F)C(F)(F)C(F)(F)C(F)(F)F)nn1
- emission maximum (in ClCCl): 573 nm
- emission maximum (in OCC(F)(F)F): 562 nm

Structure (SMILES): COC(=O)c1cccc2c1C#Cc1c(N)cccc1OCCCO2
- emission maximum (in CC#N): 487 nm
- emission maximum (in ClCCl): 453 nm

Structure (SMILES): O=C(O)c1cc(O)c(O)c(O)c1
- emission maximum (in O): 341 nm

Structure (SMILES): Nc1nc2c(ncn2[C@H]2C[C@H](O)[C@@H](CO)O2)c(=O)[nH]1
- emission maximum (in O): 338.98 nm

Structure (SMILES): CCn1c2ccccc2c2cc(-c3cc(-c4ccc5c(c4)c4ccccc4n5CC)ncn3)ccc21
- emission maximum (in C1CCOC1): 395 nm
- emission maximum (in CCOC(C)=O): 392 nm
- emission maximum (in CN(C)C=O): 418 nm
- emission maximum (in Cc1ccccc1): 379 nm
- emission maximum (in ClCCl): 414 nm

Structure (SMILES): COc1cc2cc(/C=C/c3ccc(/C=C(\C#N)C(=O)O)cc3)c(=O)oc2cc1OC
- emission maximum (in CC#N): 483 nm

Structure (SMILES): COCCC1=Cc2nc1ccc1[nH]c(cc1CCOC)c1nc(c(OC)cc3[nH]c2cc3CCOC)C(CCOC)=C1
- emission maximum (in Cc1ccccc1): 690 nm

Structure (SMILES): N#Cc1cc(C#N)c(-n2c3ccccc3c3cc(-c4ccc5c(c4)c4ccccc4n5-c4cc(-n5c6ccccc6c6ccccc65)c(C#N)cc4C#N)ccc32)cc1-n1c2ccccc2c2ccccc21
- emission maximum (in O=P(c1ccccc1)(c1ccccc1)c1ccccc1Oc1ccccc1P(=O)(c1ccccc1)c1ccccc1): 470 nm

Structure (SMILES): CCCCN(CCCC)c1ccc(C#Cc2cc(C#Cc3c(F)c(F)c(F)c(F)c3F)c(C#Cc3ccc(N(CCCC)CCCC)cc3)cc2C#Cc2c(F)c(F)c(F)c(F)c2F)cc1
- emission maximum (in ClCCl): 563 nm
- emission maximum (in c1ccccc1): 534 nm

Structure (SMILES): CCCCCCCCCCCCCCCCCCOC(=O)/C=C/C1=CC2=C(c3c(C)cc(C)cc3C)c3cccn3[B-](F)(F)[N+]2=C1
- emission maximum (in ClCCl): 569 nm

Structure (SMILES): CCCCCCCCCCCCCCCCCCOc1ccc(C#Cc2cc3nc4c(OCCCCCCCCCCCC)cc5c6cc(OCCCCCCCCCCCC)c(OCCCCCCCCCCCC)cc6c6cc(OCCCCCCCCCCCC)c(OCCCCCCCCCCCC)cc6c5c4nc3cc2C#Cc2ccc(OCCCCCCCCCCCCCCCCCC)cc2)cc1
- emission maximum (in ClC(Cl)Cl): 660 nm

Structure (SMILES): CCOC(=O)/N=c1/oc2cc(N(CC)CC)ccc2cc1C#N
- emission maximum (in ClCCl): 486 nm

Structure (SMILES): CCOC(=O)CN1C(=O)C2=C(c3ccccc3)N(CC(=O)OCC)C(=O)C2=C1c1ccccc1
- emission maximum (in CC#N): 512 nm
- emission maximum (in CS(C)=O): 519 nm
- emission maximum (in Cc1ccccc1): 520 nm

Structure (SMILES): CC1=[N+]2C(=C(c3ccc(-c4c5ccccc5c(-c5ccccc5)c5ccccc45)cc3)c3ccc(C)n3[B-]2(F)F)C=C1
- emission maximum (in CC#N): 523 nm
- emission maximum (in CCCCCC): 526 nm
- emission maximum (in CCO): 526 nm
- emission maximum (in CN(C)C=O): 529 nm
- emission maximum (in Cc1ccccc1): 532 nm
- emission maximum (in ClCCl): 526 nm

Structure (SMILES): Cc1cc(C)c2c(c1)c1cc(C)cc(C)c1n2-c1ccc2c(c1)Oc1ccccc1B2c1c(C(C)C)cc(C(C)C)cc1C(C)C
- emission maximum (in Cc1ccccc1): 443 nm

Structure (SMILES): CN(C)c1ccc(C2=Cc3c4ccccc4c4ccccc4[n+]3[B-](F)(F)O2)cc1
- emission maximum (in C1CCOC1): 539 nm
- emission maximum (in C1COCCO1): 518 nm
- emission maximum (in CC1CCCCC1): 485 nm
- emission maximum (in CC#N): 569 nm
- emission maximum (in CCOC(C)=O): 536 nm
- emission maximum (in CCOCC): 513 nm
- emission maximum (in CN(C)C=O): 571 nm
- emission maximum (in CO): 559 nm
- emission maximum (in COC(C)=O): 559 nm
- emission maximum (in ClC(Cl)Cl): 521 nm

Structure (SMILES): CC(C)(C)c1ccc2c(c1)c1cc(C(C)(C)C)cc3c1n2-c1cc(-c2cccc(F)c2)cc2c1B3c1cc(C(C)(C)C)cc3c4cc(C(C)(C)C)ccc4n-2c13
- emission maximum (in Cc1ccccc1): 493.65 nm

Structure (SMILES): CCCCCCC(CCCCCC)N1C(=O)c2cccc3c(-c4cc(OC)c(OC)c(OC)c4)ccc(c23)C1=O
- emission maximum (in CCCCCC): 440.2 nm
- emission maximum (in CCCCCCCCCCCCCC): 442.3 nm
- emission maximum (in CCCCCCCCCCCO): 526.4 nm
- emission maximum (in CCCCO): 572 nm
- emission maximum (in CN(C)C=O): 618.8 nm
- emission maximum (in Cc1ccccc1): 492.4 nm
- emission maximum (in ClC(Cl)Cl): 525.1 nm

Structure (SMILES): CCCCN(CCCC)c1ccc(C#Cc2cc(C#Cc3ccc(N(CCCC)CCCC)cc3)c(C#Cc3c(F)c(F)c(F)c(F)c3F)cc2C#Cc2c(F)c(F)c(F)c(F)c2F)cc1
- emission maximum (in ClCCl): 555 nm
- emission maximum (in c1ccccc1): 512 nm

Structure (SMILES): CCc1c(C(=O)OC)c(C(=O)OC)c2ccc(-c3ccccc3)nn12
- emission maximum (in CCCCCC): 471 nm

Structure (SMILES): CCCCCCCCCCCCC(CCCCCCCCCC)Cn1c2cc(C=C(C#N)C#N)c3cccc4c5cccc6c(C=C(C#N)C#N)cc1c(c65)c2c34 (stereo not given)
- emission maximum (in C1CCCCC1): 603 nm
- emission maximum (in CC#N): 641 nm
- emission maximum (in Cc1ccccc1): 623 nm
- emission maximum (in ClCCl): 635 nm

Structure (SMILES): O=C(O)CCCCCn1c2ccccc2c(=O)c2cc(S(=O)(=O)O)ccc21
- emission maximum (in O): 428 nm

Structure (SMILES): COc1cc2oc(=O)c3c4ccc(N(C)C)cc4c4ccc5cccc6c(c1)c2c3c4c56
- emission maximum (in C1CCOC1): 577 nm

Structure (SMILES): CC(=O)c1ccc(/C=C/C=C/C2=NC3C(=O)NC(N)=NC3N2[C@H]2C[C@H](O)[C@@H](CO)O2)cc1 (stereo not given in full)
- emission maximum (in C1COCCO1): 494 nm
- emission maximum (in CC#N): 547 nm
- emission maximum (in CO): 554 nm

Now from value to compound:

- emission maximum (in C1CCOC1): 409 nm
Structure (SMILES): F[Si](c1ccccc1)(c1c2ccccc2cc2ccccc12)c1c2ccccc2cc2ccccc12

- emission maximum (in ClCCl): 532 nm
Structure (SMILES): CCCCCCCCCCCCN1C(=O)c2c(c3ccc4cc(-c5ccc(OC)cc5)c(OC)cc4c3c3c2ccc2cc(-c4ccc(OC)cc4)c(OC)cc23)C1=O

- emission maximum (in ClCCl): 421 nm
Structure (SMILES): CC1(C)c2cc(-c3ccc4ccc5cccc6ccc3c4c56)ccc2-c2ccc(-c3ccc4ccc5cccc6ccc3c4c56)cc21

- emission maximum (in C1CCOC1): 608 nm
Structure (SMILES): F[B-]1(F)n2c(c(-c3ccccc3)c(-c3ccccc3)c2-c2ccccc2)C=C2C(c3ccccc3)=C(c3ccccc3)C(c3ccccc3)=[N+]21

- emission maximum (in ClCCl): 430 nm
Structure (SMILES): N#Cc1ccc(-n2c(-c3ccc(-c4ccc(-c5nc6c7ccccc7c7ccccc7c6n5-c5ccc(C#N)c6ccccc56)cc4)cc3)nc3c4ccccc4c4ccccc4c32)c2ccccc12

- emission maximum (in ClCCl): 468 nm
Structure (SMILES): COc1ccc(-c2cccc3ncc(-c4ccccc4)n23)cc1

- emission maximum (in CO): 656 nm
- emission maximum (in CS(C)=O): 664 nm
- emission maximum (in O): 663 nm
Structure (SMILES): CCCN1/C(=C/C=C(/C=C/C2=[N+](CCC)c3ccccc3C2(C)C)c2ccc([N+](=O)[O-])cc2)C(C)(C)c2ccccc21

- emission maximum (in CO): 440 nm
Structure (SMILES): N#Cc1cccc(-c2nc(-c3ccccc3)c(-c3ccccc3)[nH]2)c1

- emission maximum (in CS(C)=O): 408 nm
- emission maximum (in O): 416 nm
Structure (SMILES): O=c1c2ccccc2[nH]c2ccccc12

- emission maximum (in C1COCCO1): 444 nm
Structure (SMILES): O=C1NC(c2ccccc2)=N/C1=C\c1ccccc1

- emission maximum (in CO): 513 nm
Structure (SMILES): CCN(CC)c1ccc(C2=C3C(C)=CC(C)=[N+]3[B-](F)(F)n3c(C)cc(C)c32)cc1

- emission maximum (in C1CCOC1): 720 nm
- emission maximum (in CS(C)=O): 748 nm
- emission maximum (in ClCCl): 721 nm
Structure (SMILES): COc1cc(OC)cc(C2=C3C(C)=C(I)C(/C=C/c4c[nH]c5ccc([N+](=O)[O-])cc45)=[N+]3[B-](F)(F)n3c(/C=C/c4c[nH]c5ccc([N+](=O)[O-])cc45)c(I)c(C)c32)c1

- emission maximum (in ClC(Cl)Cl): 446 nm
Structure (SMILES): CC(C)(C)c1ccc2oc3nc4oc5ccc(-n6c7ccccc7c7cc(-n8c9ccccc9c9ccccc98)ccc76)cc5c4cc3c2c1

- emission maximum (in ClCCl): 430 nm
Structure (SMILES): c1ccc2c(c1)OB1Oc3ccccc3-c3c1c-2c1c2c3-c3ccccc3OB2Oc2ccccc2-1

- emission maximum (in CCO): 592 nm
- emission maximum (in ClCCl): 590 nm
Structure (SMILES): Ic1ccc(-c2c3ccc(=[N+]4CCCCC4)cc-3oc3cc(N4CCCCC4)ccc23)cc1

- emission maximum (in O): 606 nm
Structure (SMILES): CC[n+]1c(-c2ccccc2)c2cc(N)ccc2c2ccc(N)cc21

- emission maximum (in ClCCl): 469 nm
Structure (SMILES): COc1ccc(-c2cc3c(ccc4sc5ccc6sc(-c7ccc(C#N)cc7)cc6c5c43)s2)cc1

- emission maximum (in ClCCl): 443 nm
Structure (SMILES): O=C(Nc1ccccc1[N+](=O)[O-])c1ccc2oc(-c3cc4ccccc4oc3=O)nc2c1

- emission maximum (in C1CCCCC1): 478 nm
- emission maximum (in CC#N): 480 nm
- emission maximum (in CO): 475 nm
- emission maximum (in ClCCl): 486 nm
- emission maximum (in O): 475 nm
Structure (SMILES): c1ccc(-c2nc(-c3cccc4ccccc34)n3ccccc23)cc1

- emission maximum (in C1CCOC1): 610 nm
Structure (SMILES): CC1=[N+]2C(=C(c3ccccc3)c3ccc(/C=C/c4ccc(C(=C(c5ccccc5)c5ccccc5)c5ccccc5)cc4)n3[B-]2(F)F)C=C1

- emission maximum (in CCCCCC): 587 nm
Structure (SMILES): Cc1cc(C)n2c1C=C1C(=O)N(C)C(c3ccc([N+](=O)[O-])cc3)=[N+]1[B-]2(F)F

- emission maximum (in ClCCl): 502 nm
Structure (SMILES): C[Si]1(C)O[Si](C)(C)c2cc3c(-c4ccccc4)c4ccccc4nc3cc21

- emission maximum (in CO): 487 nm
Structure (SMILES): C1=CN2C[n+]3cccc(OCc4ccccc4)c3N=C2C(OCc2ccccc2)=C1

- emission maximum (in ClCCl): 521 nm
Structure (SMILES): CCCCCCN1C(=O)c2cccc3c(-c4ccc(-c5cc(-c6ccc(OC)cc6)n(-c6ccccc6)n5)s4)ccc(c23)C1=O

- emission maximum (in CC#N): 582 nm
- emission maximum (in CCCCCC): 589 nm
- emission maximum (in CCOC(C)=O): 586 nm
- emission maximum (in CO): 583 nm
- emission maximum (in ClCCl): 586 nm
Structure (SMILES): CCc1c(C)c2n(c1C)[B-](F)(F)[N+]1=C(NCc3ccc(OC)cc3)C(SC#N)=CC1=C2C

- emission maximum (in C1CCOC1): 606 nm
Structure (SMILES): FC(F)(F)C(F)(F)C(F)(F)C1=NC2=C(Sc3ccccc3)C=C3c4cc(Sc5ccccc5)c5nc(C(F)(F)C(F)(F)C(F)(F)F)nc6c(Sc7ccccc7)cc(c4c56)=C4C=C(Sc5ccccc5)C(=N1)C2C34 (stereo not given)

- emission maximum (in ClCCl): 495 nm
Structure (SMILES): C(=C\c1cc(-c2ccccc2)c(/C=C/c2ccc(N(c3ccccc3)c3ccccc3)cc2)cc1-c1ccccc1)/c1ccc(N(c2ccccc2)c2ccccc2)cc1

- emission maximum (in ClCCl): 513 nm
Structure (SMILES): COc1ccc(N(c2ccccc2)c2ccc3ccc4c(N(c5ccccc5)c5ccc(OC)cc5)ccc5ccc2c3c54)cc1

- emission maximum (in C1CCCCC1): 374.66 nm
- emission maximum (in C1CCOC1): 378.18 nm
- emission maximum (in CC#N): 375.98 nm
- emission maximum (in CCCCCC): 374.51 nm
- emission maximum (in CCO): 375.24 nm
- emission maximum (in CN(C)C=O): 380.68 nm
- emission maximum (in CO): 375.1 nm
- emission maximum (in ClC(Cl)Cl): 379.68 nm
- emission maximum (in ClCCl): 378.91 nm
Structure (SMILES): Fc1ccc(-c2cc3c4c(c2)CCc2cc(-c5ccc(F)cc5)cc(c2-4)CC3)cc1
